# Measurements: PubChem BioAssay (NCI)
#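 Assay format: 96-well plates, 48-hour exposure. GI50: concentration for 50% inhibition of growth. The concentration for full growth arrest is given as TGI.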
# Key:
# Assay in all cases: DTP human tumour cell line panel, 48 h
# SW-620 colon = system: SW-620 colon
# M14 melanoma = system: M14 melanoma
# OVCAR-3 ovarian = system: OVCAR-3 ovarian
# SNB-78 CNS = system: SNB-78 CNS
# HCT-116 colon = system: HCT-116 colon
# CCRF-CEM leukemia = system: CCRF-CEM leukemia
# COLO 205 colon = system: COLO 205 colon
# DLD-1 colon = system: DLD-1 colon
# HL-60(TB) leukemia = system: HL-60(TB) leukemia
# OVCAR-5 ovarian = system: OVCAR-5 ovarian
Compound,TGI (SW-620 colon),TGI (M14 melanoma),TGI (OVCAR-3 ovarian),TGI (SNB-78 CNS),TGI (HCT-116 colon),TGI (CCRF-CEM leukemia),TGI (COLO 205 colon),TGI (DLD-1 colon),TGI (HL-60(TB) leukemia),TGI (OVCAR-5 ovarian),GI50 (SW-620 colon),GI50 (M14 melanoma),GI50 (OVCAR-3 ovarian),GI50 (SNB-78 CNS),GI50 (HCT-116 colon),GI50 (CCRF-CEM leukemia),GI50 (COLO 205 colon),GI50 (DLD-1 colon),GI50 (HL-60(TB) leukemia),GI50 (OVCAR-5 ovarian)
COC(=O)C(=O)C(C#N)c1cccc(Cl)c1 (stereo not given),> 100 µM,> 100 µM,> 100 µM,> 100 µM,> 100 µM,> 100 µM,> 100 µM,> 100 µM,> 100 µM,> 100 µM,,,,,,,,,,
Cc1ccccc1C=NC12CC3CC(CC(C3)C1)C2,> 100 µM,> 100 µM,> 100 µM,> 100 µM,> 100 µM,> 100 µM,> 100 µM,> 100 µM,> 100 µM,> 100 µM,,,,,,,,,,
CCC1(OC(=O)CNC)C(=O)OCc2c1cc1n(c2=O)Cc2cc3ccccc3nc2-1 (stereo not given),19.5 µM,1.27 µM,0.401 µM,> 86.9 µM,0.264 µM,0.468 µM,1.54 µM,26.8 µM,0.159 µM,0.221 µM,,,,,,,,,,
O=C1C(Cl)=C(Cl)C(=O)N1c1ccccc1Cl,> 95 µM,> 100 µM,> 100 µM,> 100 µM,> 100 µM,19.3 µM,> 100 µM,> 94.7 µM,21.7 µM,> 100 µM,,,,,,,,,,
CC[O-].CC[O-].COc1ccc(C(=O)[CH-]C(C)=O)cc1OC.COc1ccc(C(=O)[CH-]C(C)=O)cc1OC.[Ti+4],> 100 µM,> 100 µM,> 100 µM,> 100 µM,> 100 µM,> 100 µM,> 100 µM,> 100 µM,> 100 µM,> 100 µM,> 100 µM,83.8 µM,46.4 µM,72.2 µM,> 100 µM,27.8 µM,> 100 µM,77.5 µM,43.3 µM,53.8 µM
Cn1cnc([N+](=O)[O-])c1Sc1nc2ccccc2o1,14.3 µM,24.4 µM,14.7 µM,32.3 µM,11.6 µM,12.8 µM,3.4 µM,16.6 µM,3.79 µM,19.4 µM,,,,,,,,,,
N#CC(C#N)=Cc1ccc(C(O)P(=O)(O)O)cc1 (stereo not given),> 100 µM,> 100 µM,> 100 µM,> 100 µM,> 100 µM,> 100 µM,> 100 µM,> 100 µM,> 100 µM,> 100 µM,,,,,,,,,,
CC(=O)n1nnc2ccc([N+](=O)[O-])cc21,> 100 µM,> 100 µM,> 100 µM,> 100 µM,> 100 µM,> 100 µM,> 100 µM,> 100 µM,> 100 µM,> 100 µM,,,,,,,,,,
CCOC(=O)NC(=O)c1cn(CCCCCCCCCCC(=O)NCCCN2CCN(CCCNC(=O)CCCCCCCCCCn3cc(C(=O)NC(=O)OCC)c(=O)[nH]c3=O)CC2)c(=O)[nH]c1=O,> 100 µM,> 10 µM,> 10 µM,> 100 µM,> 100 µM,> 100 µM,> 100 µM,> 100 µM,> 100 µM,> 100 µM,,,,,,,,,,
N#CC(C(=O)CCC(=O)Nc1ccc(Cl)cc1)c1ccc(Cl)cc1 (stereo not given),> 100 µM,> 100 µM,> 100 µM,> 100 µM,> 100 µM,> 100 µM,> 100 µM,> 100 µM,> 100 µM,> 100 µM,,,,,,,,,,
N#CCCN(C1=NN(C(=O)CC(=O)Nc2ccc(Cl)cc2)C(c2ccccc2)C1)c1ccc(Cl)cc1 (stereo not given),> 100 µM,> 100 µM,> 100 µM,> 100 µM,> 100 µM,> 100 µM,> 100 µM,> 100 µM,> 100 µM,> 100 µM,,,,,,,,,,
O=C(O)CCC(=O)Oc1ccc(O)c2c1CCCC2=O,> 100 µM,> 100 µM,> 100 µM,> 100 µM,> 100 µM,> 100 µM,> 100 µM,> 100 µM,> 100 µM,> 100 µM,,,,,,,,,,
